In ChEMBL document CHEMBL5120788, “Structure-activity relationship studies of functionalized aromatic peptidomimetics as neurolysin activators” (Bioorg Med Chem Lett, 2022) one finds Emax, EC50 and permeability data, which are given here for 22 compounds.

SMILES strings stand for the structures.

Series [1] deals with Neurolysin, mitochondrial (Rattus norvegicus) (UniProt P42676). The experiment in a line: Activation of recombinant rat Nln assessed as maximal efficacy using MCA-Pro-Leu-Gly-Pro-D-Lys (DNP)-OH as substrate preincubated for 10 mins followed by substrate addition and measured after 20 mins by fluorescence based assay relative to control. The following applies: filed as activator, time 30.0 min.
Sequence of Neurolysin, mitochondrial (Rattus norvegicus) (P42676 38-704 limits assumed): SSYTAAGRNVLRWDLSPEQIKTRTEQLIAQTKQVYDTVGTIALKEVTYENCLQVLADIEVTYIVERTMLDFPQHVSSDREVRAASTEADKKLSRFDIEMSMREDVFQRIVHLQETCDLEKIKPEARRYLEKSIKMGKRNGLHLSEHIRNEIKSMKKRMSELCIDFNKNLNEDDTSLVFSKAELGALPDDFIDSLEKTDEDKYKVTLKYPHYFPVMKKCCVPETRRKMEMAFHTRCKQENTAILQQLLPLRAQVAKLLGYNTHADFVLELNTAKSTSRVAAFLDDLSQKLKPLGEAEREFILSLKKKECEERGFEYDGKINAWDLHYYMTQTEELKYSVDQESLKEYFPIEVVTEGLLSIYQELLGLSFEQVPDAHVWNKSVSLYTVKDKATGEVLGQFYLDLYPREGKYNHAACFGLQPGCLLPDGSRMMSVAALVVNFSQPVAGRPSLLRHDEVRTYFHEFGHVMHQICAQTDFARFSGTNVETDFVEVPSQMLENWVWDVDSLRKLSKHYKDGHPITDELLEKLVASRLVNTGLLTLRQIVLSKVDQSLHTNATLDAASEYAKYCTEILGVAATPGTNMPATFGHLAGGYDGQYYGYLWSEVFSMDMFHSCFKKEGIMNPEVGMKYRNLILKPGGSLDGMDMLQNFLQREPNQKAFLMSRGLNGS

Series [2] concerns the target Neurolysin, mitochondrial (Rattus norvegicus, UniProt P42676). In words: Activation of recombinant rat Nln using MCA-Pro-Leu-Gly-Pro-D-Lys (DNP)-OH as substrate preincubated for 10 mins followed by substrate addition and measured after 20 mins by fluorescence based assay.
The nature of series [3]: Permeability of compound in mouse BEND3 cells co-cultured with mouse primary astrocytes measured upto 120 mins by LC-MS/MS. The class given is ADME, cell-based. To be noted: 2 h.

Sequence of Neurolysin, mitochondrial (P42676 whole entry): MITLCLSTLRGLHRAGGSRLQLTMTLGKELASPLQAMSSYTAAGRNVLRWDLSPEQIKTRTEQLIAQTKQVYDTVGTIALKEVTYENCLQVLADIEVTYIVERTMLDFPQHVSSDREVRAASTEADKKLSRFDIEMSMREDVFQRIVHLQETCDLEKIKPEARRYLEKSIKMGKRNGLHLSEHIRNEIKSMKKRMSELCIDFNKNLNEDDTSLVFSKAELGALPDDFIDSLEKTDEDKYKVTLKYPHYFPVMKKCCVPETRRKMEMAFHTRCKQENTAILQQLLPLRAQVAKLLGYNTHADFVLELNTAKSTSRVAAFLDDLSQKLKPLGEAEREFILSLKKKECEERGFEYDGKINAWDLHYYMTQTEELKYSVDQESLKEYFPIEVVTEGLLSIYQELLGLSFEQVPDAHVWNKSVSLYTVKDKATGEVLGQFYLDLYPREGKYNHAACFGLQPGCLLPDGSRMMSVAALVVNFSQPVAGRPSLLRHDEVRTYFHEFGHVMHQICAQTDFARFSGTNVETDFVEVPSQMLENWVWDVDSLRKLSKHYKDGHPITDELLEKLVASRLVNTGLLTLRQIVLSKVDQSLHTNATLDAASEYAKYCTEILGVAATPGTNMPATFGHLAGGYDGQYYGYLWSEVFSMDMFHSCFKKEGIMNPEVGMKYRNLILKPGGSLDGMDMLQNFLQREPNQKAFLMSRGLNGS

In the case of `N[C@@H](Cc1c[nH]cn1)C(=O)Nc1ccc(C(F)(F)F)cc1C(F)(F)F`, the Emax (as a rule, the size of the effect at its maximum, as opposed to the concentration needed) in series [1] is 368%. For the same compound, in series [2], the EC50 – broadly, the concentration needed to bring the measured effect to its halfway point – stood at 25.2 µM.

For `COc1cc(NC(=O)[C@@H](N)Cc2c[nH]cn2)cc(OC)c1OC`, in series [1], the maximum response (Emax) was determined as 436%. In addition, in series [2], the EC50 came out at 117 µM.

In the case of `COc1cccc(NC(=O)[C@@H](N)Cc2c[nH]cn2)c1`, in series [1], the Emax was 454%. Besides, in series [2], the EC50 came out at 105 µM.

Consider `N[C@@H](Cc1c[nH]cn1)C(=O)Nc1cccc(F)c1`, for which the Emax in series [1] came to 382%. In addition, in series [2], the EC50 stood at 24.8 µM.

In the case of `N[C@@H](Cc1c[nH]cn1)C(=O)Nc1cccc(C(F)(F)F)c1`, in series [1], the Emax worked out at 312%. Moreover, the EC50 in series [2] is 28.6 µM.

In the case of `N[C@H](Cc1c[nH]cn1)C(=O)Nc1ccc(F)cc1`, the Emax in series [1] was found to be 403%. Further, the EC50 in series [2] was 36.1 µM.

As to `N[C@@H](Cc1c[nH]cn1)C(=O)Nc1ccc(F)cc1`, the Emax in series [1] amounted to 488%. In addition, the EC50 in series [2] worked out at 136 µM.

Take `N[C@@H](Cc1c[nH]cn1)C(=O)Nc1ccc(C(F)(F)F)cc1`: the Emax in series [1] came out at 335%. Besides, the EC50 in series [2] stood at 32.2 µM.

Regarding `N[C@H](Cc1c[nH]cn1)C(=O)Nc1ccccc1F`, in series [1], the Emax came to 331%. In addition, the EC50 in series [2] is 78.2 µM.

With `N[C@H](Cc1c[nH]cn1)C(=O)Nc1ccc(C(F)(F)F)cc1`, the permeability entry in series [3] is “Permeable”. In addition, in series [1], the Emax was found to be 325%. Besides, the concentration for a half-maximal effect (EC50) in series [2] amounted to 15.6 µM.

For the compound `COc1cccc(NC(=O)[C@H](N)Cc2c[nH]cn2)c1`, the Emax in series [1] was found to be 478%. Also, the EC50 in series [2] came out at 121 µM.

Turning to `N[C@@H](Cc1c[nH]cn1)C(=O)Nc1c(F)cc(Br)cc1F`, in series [1], the Emax was found to be 370%. Further, the EC50 in series [2] stood at 26.7 µM.

With `COc1ccc(NC(=O)[C@@H](N)Cc2c[nH]cn2)cc1`, the Emax in series [1] amounted to 582%. Further, the EC50 in series [2] was determined as 241 µM.

`N[C@@H](Cc1c[nH]cn1)C(=O)Nc1ccccc1F`: the Emax in series [1] worked out at 268%. Moreover, the EC50 in series [2] amounted to 37.5 µM.

On to `N[C@H](Cc1c[nH]cn1)C(=O)Nc1cccc(C(F)(F)F)c1`, for which the maximal effect (Emax) in series [1] was 362%. Also, in series [2], the EC50 amounted to 22.8 µM.

Take `COc1ccccc1NC(=O)[C@@H](N)Cc1c[nH]cn1`: the Emax in series [1] came to 426%. For the same compound, the EC50 in series [2] came out at 45.1 µM.

With `N[C@H](Cc1c[nH]cn1)C(=O)Nc1cccc(F)c1`, the Emax in series [1] came to 396%. For the same compound, in series [2], the EC50 was found to be 30.9 µM.

As to `N[C@@H](Cc1c[nH]cn1)C(=O)Nc1cc(C(F)(F)F)cc(C(F)(F)F)c1`, in series [1], the Emax stood at 633%. Further, the EC50 in series [2] stood at 279 µM.

On to `COc1ccc(NC(=O)[C@H](N)Cc2c[nH]cn2)cc1`, for which the Emax in series [1] is 540%. For the same compound, in series [2], the EC50 was 214 µM.

Regarding `COc1cc(NC(=O)[C@@H](N)Cc2c[nH]cn2)cc(OC)c1`, the permeability entry in series [3] was “Permeable”. The Emax in series [1] amounted to 463%. Besides, the EC50 in series [2] came out at 52.1 µM.

Regarding `COc1ccccc1NC(=O)[C@H](N)Cc1c[nH]cn1`, the Emax in series [1] stood at 428%. For the same compound, the EC50 in series [2] stood at 53.5 µM.

For `N[C@@H](Cc1c[nH]cn1)C(=O)Nc1cc(F)cc(F)c1`, the Emax in series [1] stood at 431%. Moreover, in series [2], the EC50 is 90.6 µM.
